21 molecules from patent publication US11033539B2, “Compounds of formulas (VII), (VIII), (IX), (XI), (XII), (XIII), and (XIV) as muscarinic receptor 4(M4) antagonists for treating neurological diseases” (Neurocrine Biosciences, Inc., priority 2015, dated 2021) can be followed below.

This test concerns the target human M4 receptor (Homo sapiens (Human), UniProt P08173). The test can be described thus: Radioligand (tritiated N-methylscopolamine) binding assay, M4. The note with it: Ki against the M4 receptor; membranes from CHO cells expressing human M4; tritiated N-methylscopolamine 1.5 nM; read-out: Ki. An outline of the steps: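 Test compound (12 concentrations, 10 μM to […]), 1.5 nM radioligand and CHO receptor membranes were co-incubated at 37 °C for 90 minutes in 50 mM HEPES buffer with 100 mM NaCl, 5 mM MgCl2 and 1 mM EDTA, pH 7.4. Membranes were then harvested onto polyethylenimine-pretreated filters and radioactivity was counted to determine Ki.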

human M4 receptor, sequence (P08173 whole entry): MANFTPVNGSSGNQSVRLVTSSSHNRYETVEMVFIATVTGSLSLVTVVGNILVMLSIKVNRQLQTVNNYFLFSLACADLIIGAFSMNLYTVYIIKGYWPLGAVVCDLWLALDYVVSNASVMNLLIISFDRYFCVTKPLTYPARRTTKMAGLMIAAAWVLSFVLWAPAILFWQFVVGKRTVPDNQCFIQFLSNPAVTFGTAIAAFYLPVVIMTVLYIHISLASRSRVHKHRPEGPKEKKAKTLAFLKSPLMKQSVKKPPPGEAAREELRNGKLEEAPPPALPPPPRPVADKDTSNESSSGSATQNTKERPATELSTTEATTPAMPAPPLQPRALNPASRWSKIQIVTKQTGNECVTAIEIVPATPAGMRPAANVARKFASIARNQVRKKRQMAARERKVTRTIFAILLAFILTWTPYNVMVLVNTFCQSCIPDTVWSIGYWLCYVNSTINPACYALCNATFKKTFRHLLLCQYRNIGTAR

Regarding `C[C@@H]1CN(c2cc(F)c(F)c(F)c2)CCN1C(=O)NCCC1CCN(Cc2cc(F)ccc2F)CC1` [6-25, (2R)-N-(2-{1-[(2,5-difluorophenyl)methyl]piperidin-4-yl}ethyl)-2-methyl-4-(3,4,5-trifluorophenyl)piperazine-1-carboxamide], the Ki fell in the range of 0.1 to 1 µM.

On to `C[C@@H]1CN(c2cc(F)c(F)c(F)c2)CCN1C(=O)NCCC1CCN(Cc2c(F)cccc2F)CC1` [6-28, (2R)-N-(2-{1-[(2,6-difluorophenyl)methyl]piperidin-4-yl}ethyl)-2-methyl-4-(3,4,5-trifluorophenyl)piperazine-1-carboxamide], for which the Ki lay in the range of 0.1 to 1 µM.

On to `C[C@@H]1CN(c2cc(F)c(F)c(F)c2)CCN1C(=O)NCCC1CCN(Cc2ccccc2C#N)CC1` [6-29, (2R)-N-(2-{1-[(2-cyanophenyl)methyl]piperidin-4-yl}ethyl)-2-methyl-4-(3,4,5-trifluorophenyl)piperazine-1-carboxamide], for which the Ki is 0.1 to 1 µM.

For `C[C@@H]1CN(c2cc(F)c(F)c(F)c2)CCN1C(=O)NCCC1CCN(Cc2ccc(C#N)cc2F)CC1` [6-30, (2R)-N-(2-{1-[(4-cyano-2-fluorophenyl)methyl]piperidin-4-yl}ethyl)-2-methyl-4-(3,4,5-trifluorophenyl)piperazine-1-carboxamide], the Ki was in the range of 0.1 to 1 µM.

Turning to `C[C@@H]1CN(c2ncc(C(F)(F)F)cn2)CCN1C(=O)NCCC1CCN(Cc2ccncc2)CC1` [6-31, (2R)-2-methyl-N-{2-[1-(pyridin-4-ylmethyl)piperidin-4-yl]ethyl}-4-[5-(trifluoromethyl)pyrimidin-2-yl]piperazine-1-carboxamide], the Ki was 0.1 to 1 µM.

As to `C[C@@H]1CN(c2ncc(C(F)(F)F)cn2)CCN1C(=O)NCCC1CCN(Cc2cccnc2)CC1` [6-32, (2R)-2-methyl-N-{2-[1-(pyridin-3-ylmethyl)piperidin-4-yl]ethyl}-4-[5-(trifluoromethyl)pyrimidin-2-yl]piperazine-1-carboxamide], the Ki is 0.01 to 0.1 µM.

Regarding `C[C@@H]1CN(c2ncc(C(F)(F)F)cn2)CCN1C(=O)NCCC1CCN(Cc2ccccn2)CC1` [6-33, (2R)-2-methyl-N-{2-[1-(pyridin-2-ylmethyl)piperidin-4-yl]ethyl}-4-[5-(trifluoromethyl)pyrimidin-2-yl]piperazine-1-carboxamide], the Ki fell in the range of 0.1 to 1 µM.

On to `C[C@@H]1CN(c2ncc(C(F)(F)F)cn2)CCN1C(=O)NCCC1CCN(Cc2ccccc2C#N)CC1` [6-34, (2R)-N-(2-{1-[(2-cyanophenyl)methyl]piperidin-4-yl}ethyl)-2-methyl-4-[5-(trifluoromethyl)pyrimidin-2-yl]piperazine-1-carboxamide], for which the Ki lay in the range of 0.1 to 1 µM.

As for `C[C@@H]1CN(c2ncc(C(F)(F)F)cn2)CCN1C(=O)NCCC1CCN(Cc2ccccc2F)CC1` [6-38, (2R)-N-(2-{1-[(2-fluorophenyl)methyl]piperidin-4-yl}ethyl)-2-methyl-4-[5-(trifluoromethyl)pyrimidin-2-yl]piperazine-1-carboxamide], the Ki lay in the range of 0.01 to 0.1 µM.

As to `C[C@@H]1CN(c2ncc(C(F)(F)F)cn2)CCN1C(=O)NCCC1CCN(Cc2cncnc2)CC1` [6-39, (2R)-2-methyl-N-{2-[1-(pyrimidin-5-ylmethyl)piperidin-4-yl]ethyl}-4-[5-(trifluoromethyl)pyrimidin-2-yl]piperazine-1-carboxamide], the Ki lay in the range of 0.1 to 1 µM.

Turning to `C[C@@H]1CN(c2ncc(C(F)(F)F)cn2)CCN1C(=O)NCCC1CCN(Cc2ccc(C#N)cc2)CC1` [6-41, (2R)-N-(2-{1-[(4-cyanophenyl)methyl]piperidin-4-yl}ethyl)-2-methyl-4-[5-(trifluoromethyl)pyrimidin-2-yl]piperazine-1-carboxamide], the Ki lay in the range of 0.01 to 0.1 µM.

In the case of `C[C@@H]1CN(c2ncc(C#N)cn2)C[C@H](C)N1C(=O)NCCC1CCN(Cc2ccc(N(C)C)cc2)CC1` [6-43, (2R,6S)-4-(5-cyanopyrimidin-2-yl)-N-[2-(1-{[4-(dimethylamino)-phenyl]methyl}piperidin-4-yl)ethyl]-2,6-dimethylpiperazine-1-carboxamide], the inhibition constant (Ki) fell in the range of 0.01 to 0.1 µM.

Regarding `C[C@@H]1CN(c2ncc(C#N)cn2)C[C@H](C)N1C(=O)NCCC1CCN(CCc2ccccc2)CC1` [6-44, (2R,6S)-4-(5-cyanopyrimidin-2-yl)-2,6-dimethyl-N-{2-[1-(2-phenylethyl)piperidin-4-yl]ethyl}piperazine-1-carboxamide], the Ki lay in the range of 0.1 to 1 µM.

As to `C[C@@H]1CN(c2ncc(C#N)cn2)C[C@H](C)N1C(=O)NCCC1CCN(Cc2ccc(C#N)cc2)CC1` [6-45, (2R,6S)-N-(2-{1-[(4-cyanophenyl)methyl]piperidin-4-yl}ethyl)-4-(5-cyanopyrimidin-2-yl)-2,6-dimethylpiperazine-1-carboxamide], the Ki lay in the range of 0.1 to 1 µM.

Consider `Cc1cc(CN2CCC(CCNC(=O)N3[C@H](C)CN(c4cnc(C(F)(F)F)nc4)C[C@@H]3C)CC2)ccc1O` [6-49, (2R,6S)-N-(2-{1-[(4-hydroxy-3-methylphenyl)methyl]piperidin-4-yl}ethyl)-2,6-dimethyl-4-[2-(trifluoromethyl)pyrimidin-5-yl]piperazine-1-carboxamide], for which the Ki fell in the range of 0.1 to 1 µM.

On to `C[C@@H]1CN(c2cnc(C(F)(F)F)nc2)C[C@H](C)N1C(=O)NCCC1CCN(Cc2cccc(F)c2)CC1` [6-51, (2R,6S)-N-(2-{1-[(3-fluorophenyl)methyl]piperidin-4-yl}ethyl)-2,6-dimethyl-4-[2-(trifluoromethyl)pyrimidin-5-yl]piperazine-1-carboxamide], for which the inhibition constant Ki was in the range of 0.01 to 0.1 µM.

For `C[C@@H]1CN(c2cnc(C(F)(F)F)nc2)C[C@H](C)N1C(=O)NCCC1CCN(Cc2ccccc2F)CC1` [6-52, (2R,6S)-N-(2-{1-[(2-fluorophenyl)methyl]piperidin-4-yl}ethyl)-2,6-dimethyl-4-[2-(trifluoromethyl)pyrimidin-5-yl]piperazine-1-carboxamide], the Ki was 0.01 to 0.1 µM.

For the molecule `C[C@@H]1CN(c2cnc(C(F)(F)F)nc2)C[C@H](C)N1C(=O)NCCC1CCN(Cc2ccc(N(C)C)cc2)CC1` [6-53, (2R,6S)-N-[2-(1-{[4-(dimethylamino)phenyl]methyl}piperidin-4-yl)ethyl]-2,6-dimethyl-4-[2-(trifluoromethyl)pyrimidin-5-yl]piperazine-1-carboxamide], the Ki lay in the range of 0.01 to 0.1 µM.

As to `C[C@@H]1CN(c2cnc(C(F)(F)F)nc2)C[C@H](C)N1C(=O)NCCC1CCN(Cc2ccc(O)cc2)CC1` [6-54, (2R,6S)-N-(2-{1-[(4-hydroxyphenyl)methyl]piperidin-4-yl}ethyl)-2,6-dimethyl-4-[2-(trifluoromethyl)pyrimidin-5-yl]piperazine-1-carboxamide], the Ki fell in the range of 0.01 to 0.1 µM.

`C[C@@H]1CN(c2cnc(C(F)(F)F)nc2)C[C@H](C)N1C(=O)NCCC1CCN(Cc2ccc(F)cc2)CC1` [6-55, (2R,6S)-N-(2-{1-[(4-fluorophenyl)methyl]piperidin-4-yl}ethyl)-2,6-dimethyl-4-[2-(trifluoromethyl)pyrimidin-5-yl]piperazine-1-carboxamide]: the Ki was in the range of 0.01 to 0.1 µM.

In the case of `C[C@@H]1CN(c2cnc(C(F)(F)F)nc2)C[C@H](C)N1C(=O)NCCC1CCN(CCc2ccccc2)CC1` [6-56, (2R,6S)-2,6-dimethyl-N-{2-[1-(2-phenylethyl)piperidin-4-yl]ethyl}-4-[2-(trifluoromethyl)pyrimidin-5-yl]piperazine-1-carboxamide], the Ki fell in the range of 0.01 to 0.1 µM.
